Measured values as given in PubChem BioAssay AID330 (DTP/NCI, 2004).
Where “and” joins values, the source holds several entries; their conditions need not be identical. Identical values can stand only once. Toxic doses and inconclusive results are not listed. How the source made its calls: active means survival T/C of 150% or more; inactive means T/C below 125% in these data. Square brackets hold non-standard residues; d marks the D form. Peptide text beside a SMILES is read from it. ξ: configuration not given here. ξH = NC(Cc1c[nH]cn1)C(=O)O

System: P388 leukemia ip, CD2F1 mice, survival T/C
Assay: NCI In Vivo Anticancer Drug Screen. Data for tumor model P388 Leukemia (intraperitoneal) in CD2F1 (CDF1) mice
Conditions: endpoint: median survival time, higher = longer survival
Protocol: The antitumor activity of compounds was measured in mice bearing transplantable tumors. Survival or tumor size were measured and the results are expressed as the measurement made in the treated group (T) divided by the measurement made in the vehicle treated control group (C). The tumor model used in this assay is P388 Leukemia (intraperitoneal) in CD2F1 (CDF1) mice

[1] = dose: 50.0 mg/kg/injection, schedule: Q01DX009 (ip), vehicle: saline
[2] = dose: 100.0 mg/kg/injection, schedule: Q01DX009 (ip), vehicle: saline
[3] = dose: 200.0 mg/kg/injection, schedule: Q01DX009 (ip), vehicle: saline
[4] = dose: 50.0 mg/kg/injection, schedule: Q01DX005 (ip), vehicle: Klucel (hydroxypropylcellulose) (HPC)
[5] = dose: 100.0 mg/kg/injection, schedule: Q01DX005 (ip), vehicle: Klucel (hydroxypropylcellulose) (HPC)
[6] = dose: 200.0 mg/kg/injection, schedule: Q01DX005 (ip), vehicle: Klucel (hydroxypropylcellulose) (HPC)
[7] = dose: 50.0 mg/kg/injection, schedule: Q01DX009 (ip), vehicle: Klucel (hydroxypropylcellulose) (HPC)
[8] = dose: 100.0 mg/kg/injection, schedule: Q01DX009 (ip), vehicle: Klucel (hydroxypropylcellulose) (HPC)
[9] = dose: 200.0 mg/kg/injection, schedule: Q01DX009 (ip), vehicle: Klucel (hydroxypropylcellulose) (HPC)
[10] = dose: 50.0 mg/kg/injection, schedule: Q01DX005 (ip), vehicle: saline
[11] = dose: 100.0 mg/kg/injection, schedule: Q01DX005 (ip), vehicle: saline
[12] = dose: 200.0 mg/kg/injection, schedule: Q01DX005 (ip), vehicle: saline
[13] = dose: 60.0 mg/kg/injection, schedule: Q01DX005 (ip), vehicle: saline with Tween-80
[14] = dose: 120.0 mg/kg/injection, schedule: Q01DX005 (ip), vehicle: saline with Tween-80
[15] = dose: 240.0 mg/kg/injection, schedule: Q01DX005 (ip), vehicle: saline with Tween-80
[16] = dose: 60.0 mg/kg/injection, schedule: Q01DX005 (ip), vehicle: Klucel (hydroxypropylcellulose) (HPC)
[17] = dose: 120.0 mg/kg/injection, schedule: Q01DX005 (ip), vehicle: Klucel (hydroxypropylcellulose) (HPC)
[18] = dose: 240.0 mg/kg/injection, schedule: Q01DX005 (ip), vehicle: Klucel (hydroxypropylcellulose) (HPC)
[19] = dose: 400.0 mg/kg/injection, schedule: Q01DX009 (ip), vehicle: saline

Measured: T/C

CC(C)C1=CC2=C(C(=O)C1=O)C13CCCC(C)(C)C1CC2OC3=O (stereo unspecified)
inactive: dose: 7.0 mg/kg/injection, schedule: Q01DX005 (ip), vehicle: saline with Tween-80 105 % of control | dose: 14.0 mg/kg/injection, schedule: Q01DX005 (ip), vehicle: saline with Tween-80 104 % of control | dose: 28.0 mg/kg/injection, schedule: Q01DX005 (ip), vehicle: saline with Tween-80 109 % of control

CN(C)c1cc2nc3ccccc3nc2cc1O
inactive: [1] 95 % of control | [2] 92 % of control | [3] 100 % of control

Nc1nc(=O)n(C2CCCCO2)cc1I (stereo unspecified)
inactive: [4] 105 % of control | [5] 102 % of control | [6] 111 % of control

O=[N+]([O-])c1ccc(-c2csc(NCC3CCCO3)n2)cc1 (stereo unspecified)
inactive: [7] 101 % of control | [8] 100 % of control | [9] 100 % of control

O=P(c1ccccc1)(c1ccccc1)C(O)c1ccncc1 (stereo unspecified)
inactive: [7] 102 % of control | [8] 103 % of control | [9] 103 % of control

Nc1ncnc2c1ncn2CC(O)CN(CCO)CCO (stereo unspecified) (tested in a mixture with another compound)
inactive: dose: 60.0 mg/kg/injection, schedule: Q01DX005 (ip), vehicle: saline 93 % of control | dose: 120.0 mg/kg/injection, schedule: Q01DX005 (ip), vehicle: saline 95 % of control | dose: 240.0 mg/kg/injection, schedule: Q01DX005 (ip), vehicle: saline 94 % of control

CCN(Cc1cccc(S(=O)(=O)O)c1)c1ccc(C(=C2C=CC(=[N+](CC)Cc3cccc(S(=O)(=O)O)c3)C=C2)c2ccccc2)cc1
inactive: [10] 107 % of control | [11] 110 % of control | [12] 115 % of control

C[Se]C([Se]C)=C([Se]C)[Se]C
inactive: dose: 15.0 mg/kg/injection, schedule: Q01DX005 (ip), vehicle: saline with Tween-80 107 % of control | dose: 30.0 mg/kg/injection, schedule: Q01DX005 (ip), vehicle: saline with Tween-80 108 % of control | [13] 100 % of control and 91 % of control

O=c1oc2ccccc2cc1S(=O)(=O)c1ccccc1
inactive: [13] 94 % of control | [14] 91 % of control | [15] 91 % of control

CSC1=NNC(C)(C)C(N)=N1
inactive: dose: 100.0 mg/kg/injection, schedule: Q01DX001 (ip), vehicle: saline 98 % of control | dose: 200.0 mg/kg/injection, schedule: Q01DX001 (ip), vehicle: saline 97 % of control | dose: 400.0 mg/kg/injection, schedule: Q01DX001 (ip), vehicle: saline 100 % of control

CCOc1nc(N)nc(C)c1N=Nc1ccccc1OC
inactive: [16] 103 % of control | [17] 100 % of control | [18] 100 % of control

CC(C)(C)c1ccc(/C=N/NC(=O)c2cccnc2)cc1
inactive: [4] 98 % of control | [5] 103 % of control

CN1C=[N+](C)Cc2nnn(Cc3ccccc3)c21
inactive: dose: 1.56 mg/kg/injection, schedule: Q01DX009 (ip), vehicle: saline 105 % of control | dose: 3.12 mg/kg/injection, schedule: Q01DX009 (ip), vehicle: saline 105 % of control | dose: 6.25 mg/kg/injection, schedule: Q01DX009 (ip), vehicle: saline 100 % of control

COc1ccc(/C(C)=N/NS(=O)(=O)c2ccc(C)cc2)cc1OC
inactive: dose: 25.0 mg/kg/injection, schedule: Q01DX009 (ip), vehicle: other 97 % of control | dose: 50.0 mg/kg/injection, schedule: Q01DX009 (ip), vehicle: other 96 % of control | dose: 100.0 mg/kg/injection, schedule: Q01DX009 (ip), vehicle: other 93 % of control | dose: 200.0 mg/kg/injection, schedule: Q01DX009 (ip), vehicle: other 97 % of control | dose: 400.0 mg/kg/injection, schedule: Q01DX009 (ip), vehicle: other 88 % of control

COP(=O)(OC)C1(C(C)(C)C)CO1 (stereo unspecified)
inactive: [7] 99 % of control | [8] 88 % of control | [9] 94 % of control

COP(=O)(OC)OC.COP(=O)(OC)OC.COP(=O)(OC)OC.COP(=O)(OC)OC.COP(=O)(OC)OC.COP(=O)(OC)OC.[Mn+2].[O-][Cl+3]([O-])([O-])O
inactive: [1] 99 % of control and 100 % of control | [2] 111 % of control | [3] 109 % of control | [19] 123 % of control

CCOC(=O)c1ccccc1SC(C[N+](=O)[O-])c1ccccc1 (stereo unspecified)
inactive: [7] 105 % of control | [8] 110 % of control | [9] 110 % of control

COC(=O)/C(C)=C/C1N=C1c1ccccc1 (stereo unspecified)
inactive: dose: 25.0 mg/kg/injection, schedule: Q01DX001 (ip), vehicle: saline with Tween-80 114 % of control | dose: 50.0 mg/kg/injection, schedule: Q01DX001 (ip), vehicle: saline with Tween-80 118 % of control | dose: 100.0 mg/kg/injection, schedule: Q01DX001 (ip), vehicle: saline with Tween-80 123 % of control

O=C(NCc1ccccc1)c1cccnc1
inactive: [2] 100 % of control | [3] 98 % of control | [19] 100 % of control

COc1cc(Br)c(/C=N/O)cc1OC
inactive: [4] 104 % of control | [5] 95 % of control | [6] 91 % of control

NCCn1[nH]c(=O)c2cnccc2c1=O
inactive: [13] 95 % of control | [14] 100 % of control | [15] 95 % of control

COc1cc(C2=N/C(=C\c3ccccc3O)C(=O)O2)cc(OC)c1OC
inactive: dose: 25.0 mg/kg/injection, schedule: Q01DX009 (ip), vehicle: saline 94 % of control | [1] 94 % of control | [2] 91 % of control

[Cl][Pd][Cl].[NH-]CCN1CC1
inactive: dose: 25.0 mg/kg/injection, schedule: Q01DX009 (ip), vehicle: Klucel (hydroxypropylcellulose) (HPC) 119 % of control | [7] 112 % of control | [8] 114 % of control

COc1cc2c(cc1C(C)c1cc(C(C)(C)C)c(O)c(C(C)(C)C)c1)OCO2 (stereo unspecified)
inactive: dose: 50.0 mg/kg/injection, schedule: Q01DX005 (ip), vehicle: saline with Tween-80 104 % of control | dose: 100.0 mg/kg/injection, schedule: Q01DX005 (ip), vehicle: saline with Tween-80 100 % of control | dose: 200.0 mg/kg/injection, schedule: Q01DX005 (ip), vehicle: saline with Tween-80 94 % of control

COc1cc2c(cc1O)C1CC(CC3CCCCN31)OC(=O)/C=C\c1ccc(O)c-2c1 (stereo unspecified)
inactive: dose: 25.0 mg/kg/injection, schedule: Q04DX003 (ip), vehicle: saline 100 % of control | dose: 50.0 mg/kg/injection, schedule: Q04DX003 (ip), vehicle: saline 107 % of control and 109 % of control | dose: 100.0 mg/kg/injection, schedule: Q04DX003 (ip), vehicle: saline 102 % of control and 110 % of control and 121 % of control | dose: 200.0 mg/kg/injection, schedule: Q04DX003 (ip), vehicle: saline 100 % of control and 102 % of control and 105 % of control

COc1ccc([N+](=O)[O-])cc1Nc1c2ccccc2nc2ccccc12
inactive: dose: 50.0 mg/kg/injection, schedule: Q01DX009 (ip), vehicle: suspension in saline 100 % of control | dose: 100.0 mg/kg/injection, schedule: Q01DX009 (ip), vehicle: suspension in saline 110 % of control | dose: 200.0 mg/kg/injection, schedule: Q01DX009 (ip), vehicle: suspension in saline 101 % of control

c1ccc2c(c1)ccc1cc3cccc[n+]3cc12
inactive: dose: 0.5 mg/kg/injection, schedule: Q01DX009 (ip), vehicle: saline 92 % of control | dose: 1.0 mg/kg/injection, schedule: Q01DX009 (ip), vehicle: saline 103 % of control | dose: 2.0 mg/kg/injection, schedule: Q01DX009 (ip), vehicle: saline 92 % of control

CC1C(=O)OC2C1CCC1(C)C=CC(=O)C3(C)OC213 (stereo unspecified)
inactive: [16] 100 % of control | [17] 104 % of control | [18] 105 % of control

NCC(=O)NCC(=O)NC(Cc1cnc[nH]1)C(=O)O (stereo not drawn) (H-Gly-Gly-[ξH]-OH)
inactive: [10] 103 % of control | [11] 96 % of control | [12] 104 % of control

O=C(COc1ccc2c(=O)c3ccccc3oc2c1)N/N=C/c1ccc(N(CCCl)CCCl)cc1
inactive: [16] 97 % of control | [17] 95 % of control | [18] 94 % of control

CC(=O)OCC(COC(C)=O)(CN1C(=O)c2ccccc2C1=O)CN1C(=O)c2ccccc2C1=O
inactive: [13] 100 % of control | [14] 102 % of control | [15] 102 % of control
